{"source": "patent US20060052356A1", "about": "“Pharmacological methods to modulate oxygen consumption” (priority 2004, published 2006)", "key": {"Sprague Dawley rats": {"system": "Sprague Dawley rats", "experiment": "Toxicity and mortality in anesthetized rats given protein synthesis inhibitors (Example 3)"}, "protein synthesis": {"system": "protein synthesis", "experiment": "35S-methionine incorporation into tissue protein after i.v. protein synthesis inhibitor in anesthetized rats (Example 3)", "format": "in vivo, Sprague Dawley rats"}}, "data": [{"smiles": "C[C@H]1c2cccc(O)c2C(=O)C2=C(O)[C@]3(O)C(=O)C(C(N)=O)=C(O)[C@@H](N(C)C)[C@@H]3[C@@H](O)[C@@H]21", "note": "[Doxycycline]", "values": [{"measurement": "mortality", "setting": "Sprague Dawley rats; at doses <1/3 of LD50", "value": "~66", "unit": "%"}]}, {"smiles": "O=c1c(-c2ccc(O)cc2)coc2cc(O)cc(O)c12", "note": "[Genistein]", "values": [{"measurement": "inhibition of protein synthesis (in words)", "setting": "protein synthesis; single agents, intravenous", "value": "poor inhibitor"}, {"measurement": "toxicity", "setting": "Sprague Dawley rats; rat, in vivo", "value": "toxicity at low doses"}]}, {"smiles": "COc1ccc(C[C@H]2NC[C@H](O)[C@H]2OC(C)=O)cc1", "note": "[anisomycin]", "values": [{"measurement": "inhibition of protein synthesis (in words)", "setting": "protein synthesis; rat, in vivo, iv", "value": "substantial inhibition"}]}, {"smiles": "COc1ccc(C[C@H](N)C(=O)N[C@H]2[C@@H](O)[C@H](n3cnc4c(N(C)C)ncnc43)O[C@@H]2CO)cc1", "note": "[puromycin]", "values": [{"measurement": "inhibition of protein synthesis (in words)", "setting": "protein synthesis; single agents, intravenous", "value": "substantial inhibition"}]}]}
